One test deals with Transporter (Rattus norvegicus, UniProt Q63380). Kind of test: Inhibition of [3H]norepinephrine uptake at NET expressed in rat hypothalamic homogenate containing synaptosomes after 5 mins by scintillation counting analysis. In kind it is subcellular, Brain.
The target of test [1] is Sodium-dependent dopamine transporter (Rattus norvegicus, UniProt P23977). Kind of test: Inhibition of [3H]dopamine uptake at dopamine transporter expressed in rat striatal homogenate after 5 mins by scintillation counting analysis.
The target in test [2] is Sodium-dependent dopamine transporter (Rattus norvegicus) (UniProt P23977). Kind of test: Inhibition of [3H]dopamine uptake at dopamine transporter expressed in rat striatal homogenate after 5 mins by scintillation counting analysis relative to (+)-amphetamine.
The species named for another test is Rattus norvegicus. As to the kind of experiment: Inhibition of [3H]norepinephrine uptake at NET expressed in rat hypothalamic homogenate containing synaptosomes after 5 mins by scintillation counting analysis relative to (+)-amphetamine. In kind it is subcellular. The settings on record: Brain.

The structures appear in SMILES notation.

Transporter, sequence (Q63380 whole entry): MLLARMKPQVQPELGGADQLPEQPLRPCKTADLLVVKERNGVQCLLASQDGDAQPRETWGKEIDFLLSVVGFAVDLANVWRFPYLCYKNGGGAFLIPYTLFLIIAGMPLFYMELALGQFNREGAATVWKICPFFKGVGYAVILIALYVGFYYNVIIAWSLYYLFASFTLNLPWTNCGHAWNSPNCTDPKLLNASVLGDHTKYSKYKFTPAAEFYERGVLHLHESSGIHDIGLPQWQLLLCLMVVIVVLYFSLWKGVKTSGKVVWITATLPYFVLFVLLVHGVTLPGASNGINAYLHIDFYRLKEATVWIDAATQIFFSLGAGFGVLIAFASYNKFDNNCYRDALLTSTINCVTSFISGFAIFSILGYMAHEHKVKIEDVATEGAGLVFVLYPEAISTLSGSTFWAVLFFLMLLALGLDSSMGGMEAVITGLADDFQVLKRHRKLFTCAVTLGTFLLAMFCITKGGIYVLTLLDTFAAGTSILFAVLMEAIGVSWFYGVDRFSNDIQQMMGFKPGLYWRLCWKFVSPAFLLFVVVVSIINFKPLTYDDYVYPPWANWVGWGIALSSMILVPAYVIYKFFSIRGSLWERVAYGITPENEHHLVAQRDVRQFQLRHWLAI
Sodium-dependent dopamine transporter, sequence (P23977 whole entry): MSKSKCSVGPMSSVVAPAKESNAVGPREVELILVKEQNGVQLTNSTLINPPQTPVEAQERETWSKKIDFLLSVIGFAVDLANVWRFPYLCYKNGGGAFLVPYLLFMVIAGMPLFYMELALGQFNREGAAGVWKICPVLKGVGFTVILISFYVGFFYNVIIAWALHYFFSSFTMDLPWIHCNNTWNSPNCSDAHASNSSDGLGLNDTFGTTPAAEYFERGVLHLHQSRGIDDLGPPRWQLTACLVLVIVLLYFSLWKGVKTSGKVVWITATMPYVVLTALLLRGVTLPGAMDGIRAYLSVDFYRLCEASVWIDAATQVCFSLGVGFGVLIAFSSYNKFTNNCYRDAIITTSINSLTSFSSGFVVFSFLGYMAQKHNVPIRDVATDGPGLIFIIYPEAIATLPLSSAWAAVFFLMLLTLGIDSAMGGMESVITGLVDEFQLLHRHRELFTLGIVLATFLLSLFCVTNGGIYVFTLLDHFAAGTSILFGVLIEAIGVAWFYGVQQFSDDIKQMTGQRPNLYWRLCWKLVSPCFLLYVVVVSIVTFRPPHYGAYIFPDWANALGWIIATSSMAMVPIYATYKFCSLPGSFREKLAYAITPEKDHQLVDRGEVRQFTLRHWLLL
Sodium-dependent dopamine transporter (Rattus norvegicus), sequence (P23977 whole entry): as above

For the compound `NC1C[C@@H]2CCCC[C@H]2CC1c1ccccc1` (mixture of isomers; 4) [listing 1 of 2 here], the IC50 against Transporter came out at 5.5 µM; in test [1] it was 7 µM.
Consider `NC1C[C@@H]2CCCC[C@H]2CC1(O)c1ccc(O)c(O)c1` (mixture of isomers; form 4), for which the fold change (FC) in test [2] was determined as 5.7; in the test listed under Rattus norvegicus, 2.
`NC1C[C@@H]2CCCC[C@H]2CC1c1ccccc1` (mixture of isomers; 3) [listing 1 of 2 here]: the fold change (FC) in test [2] was 4.8; in the test listed under Rattus norvegicus, 2.2.
The corresponding values for `NC1C[C@@H]2CCCC[C@H]2CC1c1ccccc1` (mixture of isomers; 4) [listing 2 of 2 here] are 14 and 3.6.
Take `NC1C[C@@H]2CCCC[C@H]2CC1c1ccccc1` (mixture of isomers; 3) [listing 2 of 2 here]: the figures for the half-inhibitory concentration (IC50) (against Transporter; in test [1]) were 9 µM and 20 µM, respectively.
Take `NC1C[C@@H]2CCCC[C@H]2CC1(O)c1ccc(O)c(O)c1` (mixture of isomers; form 3): the fold change (FC) in test [2] amounted to 1.1; in the test listed under Rattus norvegicus, 0.03.
In the same order, the values of `NC1C[C@@H]2CCCC[C@H]2CC1c1ccccc1` (mixture of isomers; 2) [listing 1 of 2 here] are 8 and 1.1.
Turning to `NC1C[C@@H]2CCCC[C@H]2CC1(O)c1ccc(O)c(O)c1` (mixture of isomers; form 1), the fold change (FC) in test [2] was 2.3; in the test filed under Rattus norvegicus it was 4.4.
The corresponding values for `NC1C[C@@H]2CCCC[C@H]2CC1(O)c1ccc(O)c(O)c1` (mixture of isomers; form 2) are 50 and 8.9.
As for `NC1C[C@@H]2CCCC[C@H]2CC1c1ccccc1` (mixture of isomers; 2) [listing 2 of 2 here], the values for the half-maximal inhibitory concentration (IC50) (against Transporter; in test [1]) were 18 µM and 12 µM, respectively.
Consider `NC1C[C@@H]2CCCC[C@H]2CC1c1ccccc1` (mixture of isomers; 1) [listing 1 of 2 here], for which the fold change (FC) turned out to be 25 in test [2] and 30 in the test listed under Rattus norvegicus.
The corresponding values for `NC[C@H](O)c1ccc(O)c(O)c1` are 100 and 100.
For the compound `NC1C[C@@H]2CCCC[C@H]2CC1c1ccccc1` (mixture of isomers; 1) [listing 2 of 2 here], the 50% inhibitory concentration (IC50) against Transporter came out at 0.66 µM; in test [1], 3.8 µM.

(Values after ChEMBL document CHEMBL3271962 (J Med Chem, 1976).)
